The values that follow are results of earlier work, collected in patent US20070027116A1, “Therapeutic phosphonate derivatives” (priority 2003, published 2007).

For the data set the following is noted: after oral or intravenous administration; background statement.

In the case of `COc1c(C)c2c(c(O)c1C/C=C(\C)CCC(=O)OCCN1CCOCC1)C(=O)OC2` [Mycophenolate mofetil], the “drug cleared by glucuronidation and excreted in the urine” value was “over 90%”.
